ChEMBL document CHEMBL1148724, “Design, synthesis, and biological activity of 5,10-dihydro-dibenzo[b,e][1,4]diazepin-11-one-based potent and selective Chk-1 inhibitors” (J Med Chem, 2007)

Each compound was assayed against T1, Serine/threonine-protein kinase Chk1 (Homo sapiens, UniProt O14757) (assay: Inhibition of human recombinant Chk1).
T1 sequence (O14757 whole entry): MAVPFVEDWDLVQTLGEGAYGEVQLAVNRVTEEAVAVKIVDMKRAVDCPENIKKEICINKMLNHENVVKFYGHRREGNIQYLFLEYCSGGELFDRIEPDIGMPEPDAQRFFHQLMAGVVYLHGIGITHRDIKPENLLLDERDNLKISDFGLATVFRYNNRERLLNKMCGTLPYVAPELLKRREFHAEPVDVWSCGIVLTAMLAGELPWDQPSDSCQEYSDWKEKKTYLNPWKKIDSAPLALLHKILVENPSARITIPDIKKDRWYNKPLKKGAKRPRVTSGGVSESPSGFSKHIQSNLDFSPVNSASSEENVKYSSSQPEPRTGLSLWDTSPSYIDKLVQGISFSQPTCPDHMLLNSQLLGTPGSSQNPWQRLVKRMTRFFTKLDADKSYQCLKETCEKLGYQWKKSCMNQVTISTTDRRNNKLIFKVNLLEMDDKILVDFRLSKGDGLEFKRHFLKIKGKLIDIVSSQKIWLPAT

SMILES	IC50
O=C1Nc2ccccc2Nc2cc(-c3ccccc3)ccc21	> 10000 nM
CCOc1cccc(-c2ccc3c(c2)Nc2ccccc2NC3=O)c1	> 10000 nM
N#Cc1ccc(-c2ccc3c(c2)Nc2ccccc2NC3=O)cc1	> 10000 nM
CC(=O)c1ccccc1-c1ccc2c(c1)Nc1ccccc1NC2=O	8000 nM
COc1cc(-c2ccc3c(c2)Nc2ccccc2NC3=O)ccc1O	82 nM
COc1cc(-c2ccc3c(c2)Nc2ccccc2NC3=O)ccc1C#N	33 nM
O=c1[nH]c2ccccc2c(=O)c2ccccc12	> 50000 nM
O=C1Nc2ccccc2S(=O)(=O)c2ccccc21	> 50000 nM
O=C1Nc2ccccc2C(O)c2ccccc21 (stereo not given)	> 50000 nM
COc1cc(-c2ccc3c(c2)Nc2ccccc2NC3=O)ccc1C(C)=O	48 nM
COc1cc(-c2ccc3c(c2)Nc2ccccc2NC3=O)ccc1C(N)=O	88 nM
COc1cccc(-c2ccc3c(c2)Nc2ccccc2NC3=O)c1	500 nM
N#Cc1cccc(-c2ccc3c(c2)Nc2ccccc2NC3=O)c1	970 nM
CC(=O)c1cccc(-c2ccc3c(c2)Nc2ccccc2NC3=O)c1	2100 nM
CC(=O)c1ccc(-c2ccc3c(c2)Nc2ccccc2NC3=O)cc1	> 10000 nM
COc1cc(-c2ccc3c(c2)Nc2ccccc2NC3=O)ccc1[N+](=O)[O-]	10 nM
COc1ccccc1-c1ccc2c(c1)Nc1ccccc1NC2=O	3600 nM
COC(=O)c1ccc(-c2ccc3c(c2)Nc2ccccc2NC3=O)cc1OC	53 nM
COc1cc(-c2ccc3c(c2)C(=O)Nc2ccccc2N3)ccc1O	> 10000 nM
COc1cc(-c2ccc3c(c2)Nc2ccccc2NC3=O)ccc1Cl	91 nM
